In patent US20250324971A1, “HERBICIDAL DERIVATIVES” (SYNGENTA CROP PROTECTION AG, priority 2022, published 2025):

Experiments:
Format in all cases: in vivo
[1] = tested on: Zea mays (ZEAMX); assay: Pre-Emergence Test (herbicidal, glasshouse pots); conditions: rate 1000 g/ha, evaluated after 13 days, five-point scale
[2] = tested on: Echinochloa crus-galli (ECHCG); assay: Pre-Emergence Test (herbicidal, glasshouse pots); conditions: rate 1000 g/ha, evaluated after 13 days, five-point scale
[3] = tested on: Amaranthus palmeri (AMAPA); assay: Pre-Emergence Test (herbicidal, glasshouse pots); conditions: rate 1000 g/ha, evaluated after 13 days, five-point scale
[4] = tested on: Ipomoea hederacea (IPOHE); assay: Pre-Emergence Test (herbicidal, glasshouse pots); conditions: rate 1000 g/ha, evaluated after 13 days, five-point scale
[5] = tested on: Amaranthus retoflexus (AMARE); assay: Post-Emergence Test (herbicidal, glasshouse pots); conditions: rate 1000 g/ha; evaluated after 13 days
Procedure: (§1) Seeds of a variety of test species are sown in standard soil in pots (Setaria faberi (SETFA), Ipomoea hederacea (IPOHE), Echinochloa crus-galli (ECHCG), (Amaranthus retoflexus (AMARE), Zea mays (ZEAMX), and Amaranthus palmeri (AMAPA)). After 8 days cultivation under controlled conditions in a glasshouse (at 24° C./16° C., day/night; 14 hours light; 65% humidity), the plants arm sprayed with an aqueous spray solution derived from the formulation of the technical active ingredient in acetone/water (50:50) solution containing 0.5% Tween 20 (polyoxyethylene sorbitan monolaurate, CAS RN 9005-84-5). Rate of application is shown in g/ha in the tables below. The test plants are then grown in a glasshouse under controlled conditions in a glasshouse (at 24° C./16° C., day/night; 14 hours light; 65% humidity) and watered twice daily. After 13 days the test is evaluated for the percentage damage caused to the plant. The biological activities are shown in the following table on a five-point scale (5=81-100%; 4=61-80%; 3=41-60%; 2=21-40%; 1=0-20%; -=not tested).

[6] = tested on: Ipomoea hederacea (IPOHE); assay: Post-Emergence Test (herbicidal, glasshouse pots); conditions: rate 1000 g/ha; evaluated after 13 days
Procedure: as §1

[7] = tested on: Zea mays (ZEAMX); assay: Post-Emergence Test (herbicidal, glasshouse pots); conditions: rate 1000 g/ha; evaluated after 13 days
Procedure: as §1

[8] = tested on: Amaranthus palmeri (AMAPA); assay: Post-Emergence Test (herbicidal, glasshouse pots); conditions: rate 1000 g/ha; evaluated after 13 days
Procedure: as §1

[9] = tested on: Echinochloa crus-galli (ECHCG); assay: Post-Emergence Test (herbicidal, glasshouse pots); conditions: rate 1000 g/ha; evaluated after 13 days
Procedure: as §1

[10] = tested on: Amaranthus retoflexus (AMARE); assay: Pre-Emergence Test (herbicidal, glasshouse pots); conditions: rate 1000 g/ha, evaluated after 13 days, five-point scale

Structure (SMILES) | percentage damage caused to the plant, ZEAMX [1] | percentage damage caused to the plant, ECHCG [2] | percentage damage caused to the plant, AMAPA [3] | percentage damage caused to the plant, IPHOE [4] | Post-Emergence Test AMARE percentage damage (five-point scale) [5] | Post-Emergence Test IPHOE percentage damage (five-point scale) [6] | Post-Emergence Test ZEAMX percentage damage (five-point scale) [7] | Post-Emergence Test AMAPA percentage damage (five-point scale) [8] | Post-Emergence Test ECHCG percentage damage (five-point scale) [9] | percentage damage caused to the plant, AMARE [10]
CCn1c(Oc2ccc(Cl)cc2)cc(=O)c(C(=O)O)c1-c1ccc(Cl)c(Cl)c1 [Compound 19, 6-(4-chlorophenoxy)-2-(3,4-dichlorophenyl)-1-ethyl-4-oxo-pyridine-3-carboxylic acid] | 1 (1=0-20%) | 4 (4=61-80%) | 0 | 1 (1=0-20%) | 5 (5=81-100%) | 3 (3=41-60%) | 3 (3=41-60%) | 4 (4=61-80%) | 3 (3=41-60%) | 0
CCn1c(Nc2ccc(C)c(C(F)(F)F)c2)cc(=O)c(C(=O)O)c1-c1ccc(Cl)c(Cl)c1 [Compound 23, 2-(3,4-dichlorophenyl)-1-ethyl-6-[4-methyl-3-(trifluoromethyl)anilino]-4-oxo-pyridine-3-carboxylic acid] | 0 | 1 (1=0-20%) | 0 | 0 | 1 (1=0-20%) | 0 | 0 | 0 | 0 | 1 (1=0-20%)
CCn1c(Oc2ccc(Cl)cc2OC)cc(=O)c(C(=O)O)c1-c1ccc(Cl)c(Cl)c1 [Compound 26, 6-(4-chloro-2-methoxy-phenoxy)-2-(3,4-dichlorophenyl)-1-ethyl-4-oxo-pyridine-3-carboxylic acid] | 0 | 0 | 1 (1=0-20%) | 0 | 1 (1=0-20%) | 1 (1=0-20%) | 1 (1=0-20%) | 1 (1=0-20%) | 0 | 1 (1=0-20%)
CCn1c(Nc2ncc(F)cc2F)cc(=O)c(C(=O)O)c1-c1ccc(Cl)c(Cl)c1 [Compound 31, 2-(3,4-dichlorophenyl)-6-[(3,5-difluoro-2-pyridyl)amino]-1-ethyl-4-oxo-pyridine-3-carboxylic acid] | 1 (1=0-20%) | 1 (1=0-20%) | 0 | 1 (1=0-20%) | 2 (2=21-40%) | 2 (2=21-40%) | 0 | 2 (2=21-40%) | 1 (1=0-20%) | 1 (1=0-20%)
CCn1c(Oc2cccnc2F)cc(=O)c(C(=O)O)c1-c1ccc(Cl)c(Cl)c1 [Compound 34, 2-(3,4-dichlorophenyl)-1-ethyl-6-[(2-fluoro-3-pyridyl)oxy]-4-oxo-pyridine-3-carboxylic acid] | 4 (4=61-80%) | 4 (4=61-80%) | 2 (2=21-40%) | 3 (3=41-60%) | 3 (3=41-60%) | 2 (2=21-40%) | 3 (3=41-60%) | 3 (3=41-60%) | 4 (4=61-80%) | 3 (3=41-60%)
